Laboratory results reported in ChEMBL document CHEMBL4507289, “Data for DCP probe GSM1” (2021).

Tests used:
[1] = molecular target: Fibroblast growth factor receptor 3 (Homo sapiens) (UniProt P22607); conditions: Compound concentration 1000.0 nM
[2] = molecular target: Rho-associated protein kinase 2 (Homo sapiens) (UniProt O75116); conditions: Compound concentration 1000.0 nM
[3] = molecular target: TGF-beta receptor type-2 (Homo sapiens) (UniProt P37173); conditions: Compound concentration 1000.0 nM
[4] = molecular target: Focal adhesion kinase 1 (Homo sapiens) (UniProt Q05397); conditions: Compound concentration 1000.0 nM
[5] = molecular target: Serine/threonine-protein kinase MARK1 (Homo sapiens) (UniProt Q9P0L2); conditions: Compound concentration 1000.0 nM
[6] = molecular target: MAP kinase-interacting serine/threonine-protein kinase 2 (Homo sapiens) (UniProt Q9HBH9); conditions: Compound concentration 1000.0 nM
[7] = molecular target: D(1A) dopamine receptor (Homo sapiens) (UniProt P21728); conditions: Compound concentration 10.0 uM
[8] = molecular target: Serine/threonine-protein kinase 32A (Homo sapiens) (UniProt Q8WU08); conditions: Compound concentration 1000.0 nM
[9] = test system: Phosphatidylinositol 4,5-bisphosphate 3-kinase catalytic subunit alpha isoform (Homo sapiens), P42336 [E545A]; conditions: Compound concentration 1000.0 nM
[10] = molecular target: Serine/threonine-protein kinase Nek10 (Homo sapiens) (UniProt Q6ZWH5); conditions: Compound concentration 1000.0 nM
[11] = molecular target: Fibroblast growth factor receptor 4 (Homo sapiens) (UniProt P22455); conditions: Compound concentration 1000.0 nM
[12] = molecular target: Mitogen-activated protein kinase kinase kinase 2 (Homo sapiens) (UniProt Q9Y2U5); conditions: Compound concentration 1000.0 nM
[13] = molecular target: Platelet-derived growth factor receptor alpha (Homo sapiens) (UniProt P16234); conditions: Compound concentration 1000.0 nM
[14] = molecular target: Maternal embryonic leucine zipper kinase (Homo sapiens) (UniProt Q14680); conditions: Compound concentration 1000.0 nM
[15] = molecular target: Serine/threonine-protein kinase WNK1 (Homo sapiens) (UniProt Q9H4A3); conditions: Compound concentration 1000.0 nM
[16] = molecular target: 5-hydroxytryptamine receptor 1A (Homo sapiens) (UniProt P08908); conditions: Compound concentration 10.0 uM
[17] = molecular target: Beta-adrenergic receptor kinase 1 (Homo sapiens) (UniProt P25098); conditions: Compound concentration 1000.0 nM
[18] = molecular target: Serine/threonine-protein kinase 17B (Homo sapiens) (UniProt O94768); conditions: Compound concentration 1000.0 nM
[19] = molecular target: 5-hydroxytryptamine receptor 2C (Homo sapiens) (UniProt P28335); conditions: Compound concentration 10.0 uM
[20] = molecular target: Ephrin type-B receptor 2 (Homo sapiens) (UniProt P29323); conditions: Compound concentration 1000.0 nM
[21] = molecular target: Calcium/calmodulin-dependent protein kinase type II subunit beta (Homo sapiens) (UniProt Q13554); conditions: Compound concentration 1000.0 nM
[22] = molecular target: Serine/threonine-protein kinase D1 (Homo sapiens) (UniProt Q15139); conditions: Compound concentration 1000.0 nM
Notch receptor = Notch receptor (Homo sapiens, UniProt P46531+Q9UM47+Q04721+Q99466); assay: Notch assay; format: protein assay
[23] = molecular target: Serine/threonine-protein kinase ICK (Homo sapiens) (UniProt Q9UPZ9); conditions: Compound concentration 1000.0 nM
[24] = molecular target: Tyrosine-protein kinase JAK2 (Homo sapiens) (UniProt O60674); conditions: Compound concentration 1000.0 nM
[25] = molecular target: Dual specificity tyrosine-phosphorylation-regulated kinase 1A (Homo sapiens) (UniProt Q13627); conditions: Compound concentration 1000.0 nM
[26] = molecular target: Serine/threonine-protein kinase PAK 1 (Homo sapiens) (UniProt Q13153); conditions: Compound concentration 1000.0 nM
[27] = molecular target: Ribosomal protein S6 kinase alpha-6 (Homo sapiens) (UniProt Q9UK32); conditions: Compound concentration 1000.0 nM
[28] = molecular target: Myosin light chain kinase 2, skeletal/cardiac muscle (Homo sapiens) (UniProt Q9H1R3); conditions: Compound concentration 1000.0 nM
[29] = molecular target: Mitogen-activated protein kinase kinase kinase 19 (Homo sapiens) (UniProt Q56UN5); conditions: Compound concentration 1000.0 nM
[30] = molecular target: Sigma intracellular receptor 2 (Homo sapiens, UniProt Q5BJF2); conditions: Compound concentration 10.0 uM
[31] = molecular target: Leucine-rich repeat serine/threonine-protein kinase 2 (Homo sapiens) (UniProt Q5S007); conditions: Compound concentration 1000.0 nM
[32] = molecular target: Aurora kinase C (Homo sapiens) (UniProt Q9UQB9); conditions: Compound concentration 1000.0 nM
[33] = molecular target: Mitogen-activated protein kinase kinase kinase 13 (Homo sapiens) (UniProt O43283); conditions: Compound concentration 1000.0 nM
[34] = molecular target: Sodium-dependent serotonin transporter (Homo sapiens, UniProt P31645); assay: GPCRScan assay: inhibition of SERT; design: radioligand conc. used [nm] 1.5 – 2.0, parental cells stable HEK
[35] = test system: Epidermal growth factor receptor (Homo sapiens), P00533 [UNDEFINED MUTATION]; conditions: Compound concentration 1000.0 nM
[36] = test system: Phosphatidylinositol 4,5-bisphosphate 3-kinase catalytic subunit alpha isoform (Homo sapiens), P42336 [Q546K]; conditions: Compound concentration 1000.0 nM
[37] = test system: Tyrosine-protein kinase ABL1 (Homo sapiens), P00519 [Y253F]; conditions: Compound concentration 1000.0 nM
[38] = molecular target: Serine/threonine-protein kinase PAK 5 (Homo sapiens) (UniProt Q9P286); conditions: Compound concentration 1000.0 nM
[39] = molecular target: Serine/threonine-protein kinase D2 (Homo sapiens) (UniProt Q9BZL6); conditions: Compound concentration 1000.0 nM
[40] = molecular target: Cyclin-dependent kinase-like 5 (Homo sapiens) (UniProt O76039); conditions: Compound concentration 1000.0 nM
[41] = molecular target: Proto-oncogene tyrosine-protein kinase ROS (Homo sapiens) (UniProt P08922); conditions: Compound concentration 1000.0 nM
[42] = molecular target: TRAF2 and NCK-interacting protein kinase (Homo sapiens) (UniProt Q9UKE5); conditions: Compound concentration 1000.0 nM
[43] = molecular target: Tyrosine-protein kinase Lck (Homo sapiens) (UniProt P06239); conditions: Compound concentration 1000.0 nM
[44] = molecular target: Serine/threonine-protein kinase WNK2 (Homo sapiens) (UniProt Q9Y3S1); conditions: Compound concentration 1000.0 nM

Sodium-dependent serotonin transporter, sequence (P31645 whole entry): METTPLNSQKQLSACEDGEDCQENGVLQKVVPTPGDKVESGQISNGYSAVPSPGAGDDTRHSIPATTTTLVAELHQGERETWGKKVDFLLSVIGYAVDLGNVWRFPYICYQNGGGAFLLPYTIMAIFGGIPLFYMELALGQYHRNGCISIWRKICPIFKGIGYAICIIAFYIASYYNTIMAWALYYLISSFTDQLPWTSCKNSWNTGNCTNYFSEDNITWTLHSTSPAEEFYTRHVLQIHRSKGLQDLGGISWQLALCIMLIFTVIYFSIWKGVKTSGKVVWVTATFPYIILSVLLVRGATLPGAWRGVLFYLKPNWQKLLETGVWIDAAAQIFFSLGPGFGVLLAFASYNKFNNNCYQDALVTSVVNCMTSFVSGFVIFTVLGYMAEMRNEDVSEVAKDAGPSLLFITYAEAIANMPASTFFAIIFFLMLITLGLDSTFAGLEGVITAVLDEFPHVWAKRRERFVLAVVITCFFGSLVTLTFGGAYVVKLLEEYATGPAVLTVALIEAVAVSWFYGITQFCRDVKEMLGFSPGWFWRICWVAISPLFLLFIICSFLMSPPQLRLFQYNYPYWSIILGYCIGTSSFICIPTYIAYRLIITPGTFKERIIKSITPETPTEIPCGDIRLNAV
Mitogen-activated protein kinase kinase kinase 13 (Homo sapiens), sequence (O43283 whole entry): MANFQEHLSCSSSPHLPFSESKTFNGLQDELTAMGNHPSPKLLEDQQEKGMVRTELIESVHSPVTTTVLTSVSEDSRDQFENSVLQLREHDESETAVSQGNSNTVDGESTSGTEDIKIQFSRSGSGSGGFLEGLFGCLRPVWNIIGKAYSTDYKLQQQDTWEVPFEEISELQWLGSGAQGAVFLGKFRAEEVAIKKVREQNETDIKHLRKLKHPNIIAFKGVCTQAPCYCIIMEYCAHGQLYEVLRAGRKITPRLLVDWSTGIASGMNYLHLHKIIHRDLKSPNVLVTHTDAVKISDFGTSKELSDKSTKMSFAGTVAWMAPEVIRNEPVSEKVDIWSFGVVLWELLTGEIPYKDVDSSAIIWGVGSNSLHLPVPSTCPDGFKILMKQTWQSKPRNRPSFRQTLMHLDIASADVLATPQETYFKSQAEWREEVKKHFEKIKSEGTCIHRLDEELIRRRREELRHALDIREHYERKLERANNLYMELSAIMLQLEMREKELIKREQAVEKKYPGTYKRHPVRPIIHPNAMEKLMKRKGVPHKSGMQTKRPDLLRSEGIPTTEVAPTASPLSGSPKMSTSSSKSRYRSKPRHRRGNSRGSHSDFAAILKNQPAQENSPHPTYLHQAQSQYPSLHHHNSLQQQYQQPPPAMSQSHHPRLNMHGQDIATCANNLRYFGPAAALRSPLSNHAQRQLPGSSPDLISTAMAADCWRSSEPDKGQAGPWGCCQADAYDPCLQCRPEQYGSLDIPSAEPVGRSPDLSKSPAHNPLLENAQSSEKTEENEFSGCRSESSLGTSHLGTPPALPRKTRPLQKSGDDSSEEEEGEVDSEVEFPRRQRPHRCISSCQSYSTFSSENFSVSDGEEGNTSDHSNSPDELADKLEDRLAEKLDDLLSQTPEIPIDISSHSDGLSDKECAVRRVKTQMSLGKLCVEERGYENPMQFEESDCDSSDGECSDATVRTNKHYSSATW
Rho-associated protein kinase 2 (Homo sapiens), sequence (O75116 whole entry, looked up): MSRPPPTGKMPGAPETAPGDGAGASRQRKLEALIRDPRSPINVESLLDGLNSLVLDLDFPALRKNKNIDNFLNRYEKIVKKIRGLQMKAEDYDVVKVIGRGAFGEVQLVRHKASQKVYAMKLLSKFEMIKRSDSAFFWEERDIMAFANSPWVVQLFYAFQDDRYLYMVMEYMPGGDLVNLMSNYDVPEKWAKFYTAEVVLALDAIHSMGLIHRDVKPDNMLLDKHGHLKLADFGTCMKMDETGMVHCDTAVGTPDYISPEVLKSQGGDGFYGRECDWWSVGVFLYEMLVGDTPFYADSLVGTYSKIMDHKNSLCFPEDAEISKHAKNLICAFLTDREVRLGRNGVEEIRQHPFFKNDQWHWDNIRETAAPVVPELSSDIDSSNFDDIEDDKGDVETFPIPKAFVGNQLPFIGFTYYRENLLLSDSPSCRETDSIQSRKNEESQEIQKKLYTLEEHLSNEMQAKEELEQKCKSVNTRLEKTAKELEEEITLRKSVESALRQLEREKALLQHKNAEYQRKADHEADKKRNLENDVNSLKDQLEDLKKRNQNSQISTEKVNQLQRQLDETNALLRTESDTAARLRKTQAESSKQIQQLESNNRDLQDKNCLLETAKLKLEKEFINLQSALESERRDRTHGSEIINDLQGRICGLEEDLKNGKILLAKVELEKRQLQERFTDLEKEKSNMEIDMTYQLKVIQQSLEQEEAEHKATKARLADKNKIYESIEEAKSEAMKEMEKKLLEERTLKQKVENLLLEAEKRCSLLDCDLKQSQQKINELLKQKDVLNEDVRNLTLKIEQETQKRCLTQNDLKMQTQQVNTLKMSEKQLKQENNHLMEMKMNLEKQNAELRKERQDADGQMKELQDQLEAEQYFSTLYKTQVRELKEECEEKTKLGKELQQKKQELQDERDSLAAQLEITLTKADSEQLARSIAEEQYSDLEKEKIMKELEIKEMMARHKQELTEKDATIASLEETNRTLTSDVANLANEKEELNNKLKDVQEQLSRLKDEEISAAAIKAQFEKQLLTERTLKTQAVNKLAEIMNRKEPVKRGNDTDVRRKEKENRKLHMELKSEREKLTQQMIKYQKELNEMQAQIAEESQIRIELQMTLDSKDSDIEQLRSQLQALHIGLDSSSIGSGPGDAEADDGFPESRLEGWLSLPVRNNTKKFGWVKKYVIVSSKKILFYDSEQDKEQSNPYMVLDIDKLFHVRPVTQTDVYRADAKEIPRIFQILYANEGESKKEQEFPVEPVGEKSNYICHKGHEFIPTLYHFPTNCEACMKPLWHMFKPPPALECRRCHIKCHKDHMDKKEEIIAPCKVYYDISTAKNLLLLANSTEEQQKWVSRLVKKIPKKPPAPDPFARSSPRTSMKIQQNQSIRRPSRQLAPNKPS
Fibroblast growth factor receptor 4 (Homo sapiens), sequence (P22455 22-802 limits assumed): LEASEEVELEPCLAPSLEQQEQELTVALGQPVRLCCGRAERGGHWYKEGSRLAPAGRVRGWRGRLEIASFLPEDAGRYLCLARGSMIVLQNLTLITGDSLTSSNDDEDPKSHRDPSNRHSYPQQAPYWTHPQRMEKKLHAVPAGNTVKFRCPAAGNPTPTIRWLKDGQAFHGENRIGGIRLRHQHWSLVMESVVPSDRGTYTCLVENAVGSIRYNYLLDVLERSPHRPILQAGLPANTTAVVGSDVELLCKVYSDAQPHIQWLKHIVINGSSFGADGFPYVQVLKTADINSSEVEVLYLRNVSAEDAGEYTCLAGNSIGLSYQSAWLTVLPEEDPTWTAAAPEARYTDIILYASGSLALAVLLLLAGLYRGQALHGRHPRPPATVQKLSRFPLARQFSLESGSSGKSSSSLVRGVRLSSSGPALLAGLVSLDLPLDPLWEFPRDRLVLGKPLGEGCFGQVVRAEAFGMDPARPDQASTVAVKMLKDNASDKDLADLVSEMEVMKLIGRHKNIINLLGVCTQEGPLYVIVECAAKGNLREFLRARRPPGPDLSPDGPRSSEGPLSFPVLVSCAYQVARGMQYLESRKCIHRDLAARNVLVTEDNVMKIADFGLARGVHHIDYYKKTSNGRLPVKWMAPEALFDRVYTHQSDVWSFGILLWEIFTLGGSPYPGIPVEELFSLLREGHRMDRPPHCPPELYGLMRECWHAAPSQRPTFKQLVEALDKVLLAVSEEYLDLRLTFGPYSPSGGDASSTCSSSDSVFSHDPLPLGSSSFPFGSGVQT
Serine/threonine-protein kinase PAK 1 (Homo sapiens), sequence (Q13153 whole entry): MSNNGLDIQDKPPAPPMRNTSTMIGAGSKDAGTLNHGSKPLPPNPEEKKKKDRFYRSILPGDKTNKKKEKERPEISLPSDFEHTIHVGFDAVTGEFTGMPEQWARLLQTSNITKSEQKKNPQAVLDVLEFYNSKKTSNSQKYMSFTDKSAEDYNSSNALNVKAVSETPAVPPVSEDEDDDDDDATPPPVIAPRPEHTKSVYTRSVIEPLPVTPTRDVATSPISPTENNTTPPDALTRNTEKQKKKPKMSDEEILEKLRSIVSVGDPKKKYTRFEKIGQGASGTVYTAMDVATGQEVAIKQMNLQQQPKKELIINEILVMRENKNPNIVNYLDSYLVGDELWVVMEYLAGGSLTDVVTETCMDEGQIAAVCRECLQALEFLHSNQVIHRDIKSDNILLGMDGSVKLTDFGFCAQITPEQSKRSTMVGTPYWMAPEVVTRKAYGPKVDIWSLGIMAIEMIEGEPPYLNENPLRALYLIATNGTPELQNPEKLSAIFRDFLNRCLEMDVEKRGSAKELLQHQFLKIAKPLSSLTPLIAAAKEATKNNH
5-hydroxytryptamine receptor 2C (Homo sapiens), sequence (P28335 whole entry): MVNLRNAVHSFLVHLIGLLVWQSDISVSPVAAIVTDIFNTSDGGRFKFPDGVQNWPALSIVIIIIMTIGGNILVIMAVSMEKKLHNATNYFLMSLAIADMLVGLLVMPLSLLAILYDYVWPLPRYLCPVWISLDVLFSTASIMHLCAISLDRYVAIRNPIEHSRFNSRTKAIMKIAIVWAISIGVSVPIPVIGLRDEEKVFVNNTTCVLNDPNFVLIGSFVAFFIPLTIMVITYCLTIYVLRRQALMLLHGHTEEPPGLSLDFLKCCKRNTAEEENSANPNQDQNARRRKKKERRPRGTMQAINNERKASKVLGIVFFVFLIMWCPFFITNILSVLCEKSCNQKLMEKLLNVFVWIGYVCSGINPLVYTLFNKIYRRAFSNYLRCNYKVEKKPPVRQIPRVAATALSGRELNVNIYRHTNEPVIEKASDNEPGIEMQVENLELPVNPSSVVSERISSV
Sigma intracellular receptor 2, sequence (Q5BJF2 whole entry): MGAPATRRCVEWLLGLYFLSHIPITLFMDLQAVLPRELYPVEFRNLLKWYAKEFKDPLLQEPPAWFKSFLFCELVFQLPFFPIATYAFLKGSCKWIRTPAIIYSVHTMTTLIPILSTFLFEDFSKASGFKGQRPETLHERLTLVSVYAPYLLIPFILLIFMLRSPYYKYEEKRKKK

For `COc1cc(-c2cn([C@H]3CCc4c(F)cccc4N(CC(F)(F)F)C3=O)nn2)ccc1-n1cnc(C)c1`, which residual activity [1] is on record?
Its residual activity is 100%.

What about the residual activity [2] of the same compound?
The residual activity was 100%.

And the residual activity [3]?
Its residual activity is 100%.

And the residual activity [4]?
The residual activity was 100%.

And the residual activity [5]?
Its residual activity is 100%.

And the residual activity [6]?
The residual activity was 76%.

What about the inhibition [7] of the same compound?
The inhibition was 5.87%.

What about the residual activity [8] of the same compound?
The residual activity was 100%.

And the residual activity [9]?
Its residual activity is 100%.

And the residual activity [10]?
Its residual activity is 100%.

And the residual activity [11]?
The residual activity was 100%.

What about the residual activity [12] of the same compound?
Its residual activity is 94%.

What about the residual activity [13] of the same compound?
The residual activity was 100%.

And the residual activity [14]?
Its residual activity is 100%.

What about the residual activity [15] of the same compound?
Its residual activity is 100%.

What about the inhibition [16] of the same compound?
The inhibition was 19.4%.

What about the residual activity [17] of the same compound?
Its residual activity is 100%.

What about the residual activity [18] of the same compound?
Its residual activity is 99%.

What about the inhibition [19] of the same compound?
The inhibition was 27.6%.

What about the residual activity [20] of the same compound?
The residual activity was 100%.

What about the residual activity [21] of the same compound?
Its residual activity is 100%.

What about the residual activity [22] of the same compound?
Its residual activity is 100%.

What about the IC50 (Notch receptor) of the same compound?
Its IC50 is 397800 nM.

And the residual activity [23]?
The residual activity was 65%.

What about the residual activity [24] of the same compound?
Its residual activity is 100%.

And the residual activity [25]?
The residual activity was 84%.

And the residual activity [26]?
Its residual activity is 93%.

And the residual activity [27]?
The residual activity was 100%.

What about the residual activity [28] of the same compound?
The residual activity was 100%.

What about the residual activity [29] of the same compound?
The residual activity was 100%.

What about the inhibition [30] of the same compound?
Its inhibition is 50%.

What about the residual activity [31] of the same compound?
Its residual activity is 57%.

What about the residual activity [32] of the same compound?
Its residual activity is 100%.

What about the residual activity [33] of the same compound?
The residual activity was 75%.

And the Ki ([34]; read-out: Ki)?
The Ki was 24 nM.

And the residual activity [35]?
Its residual activity is 94%.

And the residual activity [36]?
The residual activity was 90%.

What about the residual activity [37] of the same compound?
The residual activity was 100%.

What about the residual activity [38] of the same compound?
Its residual activity is 93%.

What about the residual activity [39] of the same compound?
The residual activity was 100%.

What about the residual activity [40] of the same compound?
The residual activity was 91%.

And the residual activity [41]?
The residual activity was 100%.

And the residual activity [42]?
The residual activity was 94%.

And the residual activity [43]?
The residual activity was 100%.

And the residual activity [44]?
The residual activity was 53%.

What does the source list for `COc1cc(-c2cn([C@H]3CCc4ccccc4N(CC(F)(F)F)C3=O)nn2)ccc1-n1ccc(C)n1`?
residual activity [1]: 100%; residual activity [2]: 100%; residual activity [3]: 100%; residual activity [4]: 100%; residual activity [5]: 99%; residual activity [6]: 66%; inhibition [7]: 3.62%; residual activity [8]: 97%; residual activity [9]: 71%; residual activity [10]: 81%; residual activity [11]: 100%; residual activity [12]: 100%; residual activity [13]: 88%; residual activity [14]: 96%; residual activity [15]: 100%; inhibition [16]: 1.18%; residual activity [17]: 87%; residual activity [18]: 100%; inhibition [19]: 16.9%; residual activity [20]: 100%; residual activity [21]: 97%; residual activity [22]: 100%; IC50 (Notch receptor): > 50000 nM; residual activity [23]: 63%; residual activity [24]: 34%; residual activity [25]: 83%; residual activity [26]: 100%; residual activity [27]: 91%; residual activity [28]: 73%; residual activity [29]: 95%; inhibition [30]: 72%; residual activity [31]: 54%; residual activity [32]: 100%; residual activity [33]: 84%; Ki ([34]; read-out: Ki): 391 nM; Ki ([34]; read-out: pKi (converted)): 380 nM; residual activity [35]: 100%; residual activity [36]: 97%; residual activity [37]: 87%; residual activity [38]: 96%; residual activity [39]: 86%; residual activity [40]: 87%; residual activity [41]: 100%; residual activity [42]: 81%; residual activity [43]: 100%; residual activity [44]: 87%
